The text below walks through data of patent US9789082B2, “Somatostatin receptor subtype 4 (SSTR4) agonists” (Centrexion Therapeutics Corporation, priority 2013, dated 2017).

Data set [1] in a line: Metabolic stability in pooled human liver microsomes (half-life). The data set is classed as in vitro ADME. The note with it: 1 μM test compound; for half-life at 1 μM: pooled human liver microsomes, pH 7.6, 37° C., read-out: Half-life t1/2. On the procedure: The metabolic stability of the compounds according to the invention may be investigated as follows:
The metabolic degradation of the test compound is assayed at 37° C. with pooled human liver microsomes. The final incubation volume of 100 μl per time point contains TRIS buffer pH 7.6 at room temperature (0.1 M), magnesium chloride (5 mM), microsomal protein (1 mg/mL) and the test compound at a final concentration of 1 μM. Following a short preincubation period at 37° C., the reactions are initiated by addition of beta-nicotinamide adenine dinucleotide phosphate, reduced form (NADPH, 1 mM), and terminated by transferring an aliquot into solvent after different time points. After centrifugation (10000 g, 5 min), an aliquot of the supernatant is assayed by LC-MS/MS for the amount of parent compound. The half-life is determined by the slope of the semi-logarithmic plot of the concentration-time profile.
In general terms: Liver microsomes are a subcellular fraction often used to study metabolism.

For data set [2], the target named is human Somatostatin 4 receptor (SSTR4) (Homo sapiens (Human), UniProt P31391). Put plainly: cAMP assay with human somatostatin 4 receptor (hSSTR4 expressing H4 cells). The data set is classed as cell-based. The settings on record: cAMP assay, read-out: SSTR4 agonism EC50. On the procedure: Camp Assay Method Description for cAMP Assay with Human Somatostatin 4 Receptor
human Somatostatin 4 receptor (SSTR4), sequence (P31391 whole entry): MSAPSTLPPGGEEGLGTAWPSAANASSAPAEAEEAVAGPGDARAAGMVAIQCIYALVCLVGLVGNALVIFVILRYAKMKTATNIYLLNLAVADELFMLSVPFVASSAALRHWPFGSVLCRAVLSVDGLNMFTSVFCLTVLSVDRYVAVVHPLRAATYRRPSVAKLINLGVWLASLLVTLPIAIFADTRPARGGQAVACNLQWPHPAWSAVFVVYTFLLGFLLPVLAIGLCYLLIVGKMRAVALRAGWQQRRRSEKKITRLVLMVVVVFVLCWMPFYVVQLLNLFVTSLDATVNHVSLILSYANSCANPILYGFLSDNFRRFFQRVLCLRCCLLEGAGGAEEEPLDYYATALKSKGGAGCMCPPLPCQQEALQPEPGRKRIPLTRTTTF
The activation of the SSTR4 receptor (Gi coupled) causes an inhibition of intracellular cAMP after stimulation with Forskolin, which can be quantifiable by use of a suitable assay Kit and an adequate plate reader. This technique is used to characterize pharmacological effects of the SSTR4 receptor agonists by use of hSSTR4 expressing H4 cells.
Compounds are dissolved and diluted in DMSO. The final test solution contains 1% DMSO. […] Cells are centrifuged and suspended in assay buffer (incl. 1:100 diluted Alexa antibody).
For the assay 5 μl of a cell suspension (approximately 5000 cells/well)—incl. Alexa antibody (diluted 1:100) are added into a 384 well MTP microtitre plate excepting one row or column (depending on the plate layout), which is reserved for the standard curve. Then 2 μl of compound sample is added as concentration response curve (e.g. 1e-5 M to 6e-10 M), usually in triplicates. Each assay contains incubations with vehicle controls instead of compound as controls for non-inhibited cAMP generation (100% CTL; ‘high values’) and incubations with 1 μM Somatosatin as controls for full inhibition and background (0% CTL; […]). […] Then the plates are shaken briefly and incubated for 60 min at room temperature. After 60 min 10 μl of the detection mix is added into all wells followed by an additional incubation period of 1 h. The plates are read in a suitable plate reader.
From this ratio, cAMP concentrations are calculated from standard curve and the EC50 is estimated by least square curve fit program.
The EC50 values were obtained with the aid of the above described cAMP ASSAY.
(Changes in cAMP serve as a functional read-out for many G protein-coupled receptors.)

Consider `Cc1cc(C#N)ccc1OCC(C)(C)NC(=O)[C@H]1[C@@H]2CNC[C@@H]21.Cl` [Example 17], for which the half-life at 1 μM in data set [1] is greater than 2.17 h. The EC50 (in general, the midpoint of the concentration-response curve) in data set [2] was found to be 1 nM.
As for `CC(C)(NC(=O)[C@H]1[C@@H]2CNC[C@@H]21)c1nc(C2CC2)c2ccccn12.Cl` [Example 120], in data set [1], the half-life at 1 μM was greater than 2.17 h. Besides, the 50% effective concentration (EC50) in data set [2] came to 1.9 nM.
As to `Cc1cc(C(C)(C)NC(=O)[C@H]2[C@@H]3CNC[C@@H]32)c2ccccc2n1` [Example 33], the half-life at 1 μM in data set [1] is greater than 2.17 h. Besides, the EC50 in data set [2] was found to be 4.6 nM.
For the compound `Cc1ccc(C(C)(C)NC(=O)[C@H]2[C@@H]3CNC[C@@H]32)n2ccnc12` [Example 83], the half-life at 1 μM in data set [1] is greater than 2.17 h. The 50% effective concentration (EC50) in data set [2] turned out to be 11 nM.
For the compound `CC(C)(NC(=O)[C@H]1[C@@H]2CNC[C@@H]21)c1ncc2c(C3CC3)cccn12` [Example 146], the half-life at 1 μM in data set [1] was greater than 2.17 h. For the same compound, the EC50 in data set [2] amounted to 2.6 nM.
Consider `C[C@H](NC(=O)[C@H]1[C@@H]2CNC[C@@H]21)c1cccc2ccccc12` [Example 10], for which the half-life at 1 μM in data set [1] was greater than 2.17 h. Moreover, in data set [2], the EC50 was 10.7 nM.
Turning to `Cc1cccc(OCC(C)(C)NC(=O)[C@H]2[C@@H]3CNC[C@@H]32)c1` [Example 43], the half-life at 1 μM in data set [1] was greater than 2.17 h. The EC50 in data set [2] was 185 nM.
The like results for `CC(C)(NC(=O)[C@H]1[C@@H]2CNC[C@@H]21)c1ncc2ccccn12.Cl` [Example 68] were, in that order, greater than 2.17 h and 4.7 nM.
For the compound `Cn1nc(C(C)(C)NC(=O)[C@H]2[C@@H]3CNC[C@@H]32)c2cccc(F)c21` [Example 105], the half-life at 1 μM in data set [1] was greater than 2.17 h. In addition, the EC50 in data set [2] was 0.4 nM.
The matching figures for `Cc1ccccc1OCC(C)(C)NC(=O)[C@H]1[C@@H]2CN(C)C[C@@H]21.Cl` [Example 71]: 2 h and 26.9 nM.
The matching figures for `COc1cccn2c(C(C)(C)NC(=O)[C@H]3[C@@H]4CNC[C@@H]43)ncc12` [Example 140]: greater than 2.17 h and 0.6 nM.
As for `CC(C)(NC(=O)[C@H]1[C@@H]2CNC[C@@H]21)c1noc2c(C(F)(F)F)cccc12` [Example 102], the half-life at 1 μM in data set [1] is greater than 2.17 h. Besides, in data set [2], the EC50 is 2.3 nM.
The like results for `Cc1cccn2c(C3(NC(=O)[C@H]4[C@@H]5CNC[C@@H]54)CC3)ncc12` [Example 145] were, in that order, greater than 2.17 h and 0.9 nM.
Take `CC(NC(=O)[C@H]1[C@@H]2CNC[C@@H]21)c1nn(C)c2c(Cl)cccc12` (single isomer, unassigned) [Example 116]: the half-life at 1 μM in data set [1] is greater than 2.17 h. Besides, the EC50 in data set [2] was determined as 2.1 nM.
On to `CC(C)(NC(=O)[C@H]1[C@@H]2CNC[C@@H]21)c1n[nH]c2c(C(F)(F)F)cccc12` [Example 110], for which the “Half-life t1/2” value in data set [1] (37° C.) was greater than 2.17 h.
On to `CC(C)(NC(=O)[C@H]1[C@@H]2CNC[C@@H]21)c1noc2ccccc12` [Example 51], for which, in data set [1], the half-life at 1 μM is greater than 2.17 h. The EC50 in data set [2] is 7.4 nM.
The matching figures for `Cl.Cn1nccc1OCC(C)(C)NC(=O)[C@H]1[C@@H]2CNC[C@@H]21` [Example 60]: greater than 2.17 h and 76.9 nM.
The matching figures for `Cn1nc(C(C)(C)NC(=O)[C@H]2[C@@H]3CNC[C@@H]32)c2cccc(C(F)(F)F)c21` [Example 76]: greater than 2.17 h and 0.8 nM.
The matching figures for `Cn1nc(C(C)(C)NC(=O)[C@H]2[C@@H]3CNC[C@@H]32)c2ccc(F)cc21` [Example 75]: greater than 2.17 h and 0.4 nM.
Turning to `CC(C)(COc1ncccc1C(F)(F)F)NC(=O)[C@H]1[C@@H]2CNC[C@@H]21` [Example 52], the half-life at 1 μM in data set [1] was greater than 2.17 h. Besides, the EC50 in data set [2] was found to be 2.4 nM.
The matching figures for `CC(C)(COc1ccccc1C(F)(F)F)NC(=O)[C@H]1[C@@H]2CNC[C@@H]21.Cl` [Example 12]: greater than 2.17 h and 0.6 nM.
The like results for `Cn1nc(C(C)(C)NC(=O)[C@H]2[C@@H]3CNC[C@@H]32)c2cccnc21` [Example 32] were, in that order, greater than 2.17 h and 9.9 nM.
The like results for `CC(C)(NC(=O)[C@H]1[C@@H]2CNC[C@@H]21)c1n[nH]c2c(F)cccc12` [Example 109] were, in that order, greater than 2.17 h and 0.3 nM.
On to `Cc1cccn2c(C(C)(C)NC(=O)[C@H]3[C@@H]4CNC[C@@H]43)nnc12` [Example 142], for which, in data set [1], the half-life at 1 μM is greater than 2.17 h. Besides, the EC50 in data set [2] came out at 4 nM.
The matching figures for `CC(C)(NC(=O)[C@H]1[C@@H]2CNC[C@@H]21)c1cnn2c1CCCC2` [Example 168]: greater than 2.17 h and 47.3 nM.
As to `CC(C)(NC(=O)[C@H]1[C@@H]2CNC[C@@H]21)c1ncnc2c(Cl)cccc12` [Example 156], the half-life at 1 μM in data set [1] is greater than 2.17 h. Besides, in data set [2], the 50% effective concentration (EC50) amounted to 7.4 nM.
The like results for `Cc1cc(F)cnc1OCC(C)(C)NC(=O)[C@H]1[C@@H]2CNC[C@@H]21` [Example 48] were, in that order, greater than 2.17 h and 3.7 nM.
The matching figures for `Cc1ncccc1OCC(C)(C)NC(=O)[C@H]1[C@@H]2CNC[C@@H]21.Cl` [Example 44]: greater than 2.17 h and 361 nM.
Regarding `Cc1nc(C(C)(C)NC(=O)[C@H]2[C@@H]3CNC[C@@H]32)n2ccccc12` [Example 45], the half-life at 1 μM in data set [1] was greater than 2.17 h. In addition, the concentration for a half-maximal effect (EC50) in data set [2] came out at 1.2 nM.
For the compound `Cc1cccc2c(C(C)(C)NC(=O)[C@H]3[C@@H]4CNC[C@@H]43)n(C)nc12` [Example 108], in data set [1], the half-life at 1 μM is greater than 2.17 h.
Take `Cn1nc(C(C)(C)NC(=O)[C@H]2[C@@H]3CNC[C@@H]32)c2cccc(Cl)c21` [Example 106]: in data set [1], the half-life at 1 μM is greater than 2.17 h.
With `CC(C)(NC(=O)[C@H]1[C@@H]2CNC[C@@H]21)c1nn(Cc2ccccc2)c2ccccc12` [Example 50], in data set [2], the EC50 is 8.4 nM.
`O=C(NC1(c2nc3ccc(Cl)cc3[nH]2)CCOC1)[C@H]1[C@@H]2CNC[C@@H]21` (stereo partly shown) [Example 169]: the EC50 in data set [2] was found to be 313 nM.
Same read-out and setting: next, `CC(C)(NC(=O)[C@H]1[C@@H]2CNC[C@@H]21)c1cn2ccccc2n1` [Example 84]: 840 nM.
Consider `CC(C)(COc1cccn2ccnc12)NC(=O)[C@H]1[C@@H]2CNC[C@@H]21` [Example 61], for which the EC50 in data set [2] stood at 1090 nM.
Consider `Cc1cc(I)ccc1OCC1(NC(=O)[C@H]2[C@@H]3CNC[C@@H]32)CC1` [Example 1], for which the EC50 in data set [2] was found to be 238 nM.
Turning to `Cc1cccn2c([C@@H](C)NC(=O)[C@H]3[C@@H]4CNC[C@@H]43)ncc12` [Example 160], the EC50 in data set [2] stood at 42.4 nM.
For `CC(C)(NC(=O)[C@H]1[C@@H]2CNC[C@@H]21)c1ncc2n1CCCC2` [Example 181], in data set [2], the EC50 came out at 41.3 nM.
Still for that read-out and setting: the same measure for `Cc1nc2ccccn2c1C(C)(C)NC(=O)[C@H]1[C@@H]2CNC[C@@H]21` [Example 147]: 13.3 nM; for `CC(C)(NC(=O)[C@H]1[C@@H]2CNC[C@@H]21)C1COc2ccccc21` (stereo partly shown) [Example 173]: 237 nM; for `CC(C)(NC(=O)[C@H]1[C@@H]2CNC[C@@H]21)C1CCOc2ccccc21` (single isomer, unassigned) [Example 179]: 10.3 nM.
In the case of `CC(C)(NC(=O)[C@H]1[C@@H]2CNC[C@@H]21)c1ccc2nccn2c1` [Example 86], the EC50 in data set [2] was found to be 93.9 nM.
Take `CC(C)(NC(=O)[C@H]1[C@@H]2CNC[C@@H]21)C1COc2ccccc21` (single isomer, unassigned) [Example 174]: the EC50 in data set [2] is 100 nM.
On to `O=C(NC1(c2ccccc2)CCCCC1)[C@H]1[C@@H]2CNC[C@@H]21` [Example 9], for which the EC50 in data set [2] worked out at 536 nM.
For `Cc1nc(C(C)NC(=O)[C@H]2[C@@H]3CNC[C@@H]32)c2ccccc2n1` (single isomer, unassigned) [Example 163], the EC50 in data set [2] worked out at 338 nM.
Turning to `CC(C)(NC(=O)[C@H]1[C@@H]2CNC[C@@H]21)C1CCOc2ccccc21` (stereo partly shown) [Example 178], the EC50 in data set [2] was 22.4 nM.
Turning to `Cc1cc(Br)ccc1OCC(C)(C)NC(=O)[C@H]1[C@@H]2CNC[C@@H]21` [Example 14], in data set [2], the EC50 came out at 7.2 nM.
Still for that read-out and setting: the same measure for `CC(C)(NC(=O)[C@H]1[C@@H]2CNC[C@@H]21)c1ncc2c(C(F)(F)F)cccn12` [Example 124]: 15.4 nM.
